The record followed here is patent US10143691B2, “Pathogenic control of apoptosis” (CSIR, priority 2014, dated 2018).

Structures are written as SMILES. “Also recorded” adds a separate entry of the source. Read-outs that look alike come from different tables or passages of the source.

Experiment [1] has as its system Ghost(3) cells. It is filed as cell-based. The procedure:
Apoptosis was measured in Ghost(3) cells 30 hours post-infection or drug treatment using the NucView™ 488 Caspase3 Assay Kit (Biotium) in a 96 well format. Data was analysed in MATLAB using a probabilistic region method to measure cell attachment and expressed as percentage cell survival. […] An average of 3000 cells per condition were analysed with the exception of cells treated with Doxorubicin followed by HIV-infection (FIG. 3), cells transfected with lincRNAp21 overexpression constructs followed by Doxorubicin treatment, and cells transfected with full-length lincRNAp21, infected with HIV1 and treated with Nutlin3 (FIG. 25). These latter conditions ( ? ) yielded too few attached cells (<20) at 30 hours for similar analysis.
Apoptosis was measured in Ghost(3) cells 30 hours post-infection or drug treatment using the NucView™ 488 Caspase-3 Assay Kit (Biotium) in a 96 well format. Data was analysed in MATLAB using a probabilistic region method to measure cell attachment and expressed as percentage cell survival. […] An average of 3000 cells per condition were analysed with the exception of cells treated with Doxorubicin followed by HIV-infection (FIG. 27), cells transfected with lincRNA-p21 overexpression constructs followed by Doxorubicin treatment (FIG. 36), and cells transfected with full-length lincRNA-p21, infected with HIV-1 and treated with Nutlin3 (FIG. 45). These latter conditions ( ? ) yielded too few attached cells (<20) at 30 hours for similar analysis.

Experiment [2] concerns lincRNAp21. Nature of the experiment: lincRNA-p21 expression by RNA FISH spot counts and quantitative RT-PCR. It is filed as cell-based, human. The settings on record: uninfected Ghost(3) cells, drug-treated, smFISH spot count and qRT-PCR. The procedure:
RNA FISH on Ghost(3) cells was performed according to Raj, 2008 and on primary macrophages according to Schaffer, 2013. For both methods 48 20mer probes (Biosearch) targeted to human lincRNAp21 were synthesised baring a […] C6dT. The amino group was subsequently conjugated to the following NHSester dyes: ATTO565, ATTO647N (ATTOTEC) or Alexa Fluor 647 (Invitrogen). Briefly, oligonucleotide probes were ethanol precipitated and resuspended in 0.1 M sodium tetraborate (Sigma). Approximately 0.3 mg of the NHSester dye (ATTOTEC) was dissolved in dimethyl sulphoxide (Sigma). The dye solution was added to the probe solution and incubated overnight in the dark at 37° C. Following the conjugation reaction, the probes were ethanol precipitated overnight, and resuspended in 0.1 M triethyl ammonium (Sigma). Conjugated probes were separated and purified to enrich for dyeconjugated probes by reverse phase HPLC on a C18 column. […]
For each experiment, Ghost(3) cells or IPSO-derived primary macrophages were infected or treated with 500 nM Doxorubicin over time and total RNA was extracted from cells using TRIzol® (Life Technologies), treated with RQ1 RNase-free DNase (Promega) and reverse transcribed using SuperScript III Reverse Transcriptase (Life Technologies). Quantitative RTPCR was performed using Sso Fast EvaGreen™ supermix (BioRad) on a BioRad CFX96 real-time PCR detection system. […]

On to `COc1cccc2c1C(=O)c1c(O)c3c(c(O)c1C2=O)C[C@@](O)(C(=O)CO)C[C@@H]3O[C@H]1C[C@H](N)[C@H](O)[C@H](C)O1` [Doxorubicin], for which the percentage cell survival in experiment [1] (Ghost(3) cells infected with HIV-1 24 hours before the same duration of Doxorubicin treatment) is listed as 60%; in experiment [1] (Ghost(3) cells, Doxorubicin only (lethal dose), no HIV), 32%. Further, the apoptosis result in experiment [1] (Ghost(3) cells infected with HIV-1 24 hours prior to Doxorubicin treatment) is “do not undergo apoptosis”; in experiment [1] (Ghost(3) cells that received Doxorubicin prior to HIV-1 infection), “underwent apoptosis; also recorded: do undergo apoptosis”; in experiment [1] (cells concurrently infected and treated with Maraviroc, Tenofovir or Raltegravir, Doxorubicin added 24 hours later), “the cells underwent apoptosis”; in experiment [1] (uninfected Ghost(3) cells, lethal dose of Doxorubicin (500 nM)), “apoptosis at 48 hours; also recorded: by 24 hours, cells were apoptotic; also recorded: followed by apoptosis”. Further, the lincRNA-p21 expression result in experiment [2] is given as “enhanced; also recorded: significantly increases lincRNAp21 expression over time”.
